pIC50: −log10 of the molar value. Counter-ions that a name gives are not always drawn.
How the values were obtained:
PDGFR beta = molecular target: T1, PDGFR beta (Homo sapiens, UniProt P09619); experiment: Phospho PDGFR Cell Assay, sandwich ELISA (Example A); assay type: cell-based; conditions: averaged IC50, PDGFR beta phosphorylation in HS27 human fibroblast cell line, PDGF-BB stimulation 5 minutes
T1 construct: endogenous in cells; host or cells: HS27 human fibroblast cell line
Experimental: Compounds were screened for inhibition of PDGFR beta phosphorylation in the HS27 human fibroblast cell line. Cells were seeded into a 96 well tissue culture plate, then incubated overnight in a 37° C., 5% CO2 incubator. The following day, cells were treated for one hour with test compound dilutions. After stimulation with PDGF-BB ligand for 5 minutes, cells were lysed and added to a sandwich ELISA plate from R&D Systems to detect levels of phospho PDGFR beta. A standard 4-parameter logistic model was fit to the inhibitor dose response curves, with the IC50 being defined as the concentration of inhibitor giving 50 percent of control (POC).

cFMS = molecular target: T2, cFMS (Homo sapiens, UniProt P07333); experiment: cFMS Cell-Based Assay (Example C); conditions: averaged IC50; phospho-cFMS in THP-1 cells stimulated with 250 ng/mL recombinant human MCSF; read-out: cFMS Cell ELISA IC50
T2 construct: THP-1 cells (human acute monocytic leukemia cell line) were serum-starved for 4 hours; endogenous in cells; host or cells: THP-1 cells (human acute monocytic leukemia cell line)
T2 sequence (P07333 20-972): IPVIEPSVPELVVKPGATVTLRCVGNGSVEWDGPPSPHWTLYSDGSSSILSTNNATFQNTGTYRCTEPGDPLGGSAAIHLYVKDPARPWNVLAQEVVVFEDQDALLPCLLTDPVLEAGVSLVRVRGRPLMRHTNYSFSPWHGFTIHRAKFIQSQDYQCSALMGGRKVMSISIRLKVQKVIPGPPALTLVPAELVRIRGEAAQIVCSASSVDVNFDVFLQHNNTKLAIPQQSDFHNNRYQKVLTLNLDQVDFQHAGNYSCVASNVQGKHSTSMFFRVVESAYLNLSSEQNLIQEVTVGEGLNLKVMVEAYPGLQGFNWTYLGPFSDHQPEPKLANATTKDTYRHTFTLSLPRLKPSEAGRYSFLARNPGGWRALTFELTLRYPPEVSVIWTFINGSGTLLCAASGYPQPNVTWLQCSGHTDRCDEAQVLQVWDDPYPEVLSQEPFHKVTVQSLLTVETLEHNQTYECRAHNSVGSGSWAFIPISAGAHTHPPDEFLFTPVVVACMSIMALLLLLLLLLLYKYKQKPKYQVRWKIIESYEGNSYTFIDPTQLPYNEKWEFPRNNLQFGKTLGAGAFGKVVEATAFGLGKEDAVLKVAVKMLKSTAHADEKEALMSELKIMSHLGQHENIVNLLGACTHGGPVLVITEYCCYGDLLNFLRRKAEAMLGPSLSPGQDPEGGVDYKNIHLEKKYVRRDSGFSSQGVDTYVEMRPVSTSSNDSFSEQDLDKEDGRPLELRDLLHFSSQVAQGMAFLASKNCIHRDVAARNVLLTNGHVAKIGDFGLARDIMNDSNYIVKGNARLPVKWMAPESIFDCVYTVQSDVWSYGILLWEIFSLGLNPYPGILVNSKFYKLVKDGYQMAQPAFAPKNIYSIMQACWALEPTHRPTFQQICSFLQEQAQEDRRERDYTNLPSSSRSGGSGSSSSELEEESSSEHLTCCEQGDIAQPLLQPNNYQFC
Outline: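 THP-1 cells serum-starved 4 h, then treated 1 h with compound (9-point, 3-fold series, top dose typically 5,000 nM) at 37 °C, then stimulated 1 min with 250 ng/mL recombinant human MCSF. Phospho-cFMS in lysates quantified by capture ELISA against a purified phospho-protein standard curve. IC50 at 50 percent of control, 4-parameter logistic fit.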

c-KIT = molecular target: T3, c-KIT (Homo sapiens, UniProt P10721); experiment: c-KIT Cell-Based Assay (Example D); conditions: averaged IC50; phospho-c-KIT in M-07e cells stimulated with 150 ng/ml recombinant human SCF; read-out: cKIT Cell ELISA IC50
T3 construct: M-07e cells (human acute megakaryoblastic leukemia cell line) were serum-starved for 4 hours; endogenous in cells; host or cells: M-07e cells (human acute megakaryoblastic leukemia cell line)
T3 sequence (P10721 26-976): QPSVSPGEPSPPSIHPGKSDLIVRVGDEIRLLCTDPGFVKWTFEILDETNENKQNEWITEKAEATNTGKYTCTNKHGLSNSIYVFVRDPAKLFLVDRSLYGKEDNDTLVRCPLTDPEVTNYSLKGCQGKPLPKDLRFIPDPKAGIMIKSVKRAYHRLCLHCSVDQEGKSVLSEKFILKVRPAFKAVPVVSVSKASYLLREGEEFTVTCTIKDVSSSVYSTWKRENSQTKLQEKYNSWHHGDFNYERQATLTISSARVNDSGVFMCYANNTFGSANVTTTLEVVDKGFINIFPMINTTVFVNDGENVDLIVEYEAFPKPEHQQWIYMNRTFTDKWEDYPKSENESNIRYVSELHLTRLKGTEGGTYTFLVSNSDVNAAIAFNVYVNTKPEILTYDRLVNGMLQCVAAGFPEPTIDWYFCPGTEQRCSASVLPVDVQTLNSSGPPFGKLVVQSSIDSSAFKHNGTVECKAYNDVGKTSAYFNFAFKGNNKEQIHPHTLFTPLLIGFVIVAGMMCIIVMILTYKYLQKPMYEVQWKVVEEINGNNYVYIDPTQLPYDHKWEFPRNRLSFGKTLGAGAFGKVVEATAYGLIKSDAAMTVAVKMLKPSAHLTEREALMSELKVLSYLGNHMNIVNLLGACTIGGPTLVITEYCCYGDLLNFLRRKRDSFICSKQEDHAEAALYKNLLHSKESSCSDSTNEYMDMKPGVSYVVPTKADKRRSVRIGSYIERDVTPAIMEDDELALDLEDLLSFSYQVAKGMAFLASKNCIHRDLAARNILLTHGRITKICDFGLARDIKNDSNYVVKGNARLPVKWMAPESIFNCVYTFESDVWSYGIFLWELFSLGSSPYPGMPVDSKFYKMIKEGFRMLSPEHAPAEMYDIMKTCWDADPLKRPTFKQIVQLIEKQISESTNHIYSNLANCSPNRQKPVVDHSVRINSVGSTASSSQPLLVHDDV
Outline: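 M-07e cells serum-starved 4 h, treated 1 h with compound (9-point, 3-fold dilutions, top dose typically 5,000 nM) at 37° C, then stimulated 4 min with 150 ng/ml SCF. Phospho-c-KIT in lysates quantified by ELISA against a standard curve; IC50 from 4-parameter logistic fit as 50% of control.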

T1 sequence (P09619 33-1106): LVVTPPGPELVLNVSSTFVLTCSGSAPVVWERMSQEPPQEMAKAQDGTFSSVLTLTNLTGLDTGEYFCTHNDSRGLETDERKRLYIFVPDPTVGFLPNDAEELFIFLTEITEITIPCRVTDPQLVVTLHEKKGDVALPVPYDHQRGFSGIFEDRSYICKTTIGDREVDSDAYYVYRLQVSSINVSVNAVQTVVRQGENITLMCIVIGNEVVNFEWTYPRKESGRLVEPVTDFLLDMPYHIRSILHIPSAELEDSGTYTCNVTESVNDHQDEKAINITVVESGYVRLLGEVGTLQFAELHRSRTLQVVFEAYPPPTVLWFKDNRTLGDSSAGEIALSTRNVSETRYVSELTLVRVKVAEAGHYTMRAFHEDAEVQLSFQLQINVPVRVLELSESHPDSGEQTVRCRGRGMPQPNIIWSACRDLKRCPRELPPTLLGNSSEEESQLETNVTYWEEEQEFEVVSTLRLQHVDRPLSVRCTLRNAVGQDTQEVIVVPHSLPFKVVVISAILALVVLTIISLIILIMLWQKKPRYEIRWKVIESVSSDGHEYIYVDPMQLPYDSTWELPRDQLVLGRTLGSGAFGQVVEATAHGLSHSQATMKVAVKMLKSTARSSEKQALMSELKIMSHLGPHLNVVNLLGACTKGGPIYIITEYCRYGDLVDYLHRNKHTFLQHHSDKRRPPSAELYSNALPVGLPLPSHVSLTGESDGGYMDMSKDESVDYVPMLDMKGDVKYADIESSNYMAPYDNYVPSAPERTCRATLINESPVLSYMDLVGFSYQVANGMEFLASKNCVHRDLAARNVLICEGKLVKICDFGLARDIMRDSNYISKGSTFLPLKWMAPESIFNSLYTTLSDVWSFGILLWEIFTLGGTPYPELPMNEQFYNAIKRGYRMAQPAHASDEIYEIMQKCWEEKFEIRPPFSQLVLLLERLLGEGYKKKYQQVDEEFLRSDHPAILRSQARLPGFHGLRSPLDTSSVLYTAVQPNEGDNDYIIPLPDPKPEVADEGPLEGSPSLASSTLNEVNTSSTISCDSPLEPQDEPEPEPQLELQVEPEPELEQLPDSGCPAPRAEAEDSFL

| pIC50 (PDGFR beta) | pIC50 (cFMS) | pIC50 (c-KIT) | SMILES |
| --- | --- | --- | --- |
| 7.39 | 7.68 | 7.36 | Cc1nn(Cc2cccc(C(C)C)n2)c2cccc(NC(=O)c3cnc4cc(OCCN5C[C@@H](C)N(C)[C@@H](C)C5)ccn34)c12 [Example 7, N-(1-((6-Isopropylpyridin-2-yl)methyl)-3-methyl-1H-indazol-4-yl)-7-(2-((3S,5R)-3,4,5-trimethylpiperazin-1-yl)ethoxy)imidazo[1,2-a]pyridine-3-carboxamide] |
| 7.25 | 7.97 | 7.12 | COCCN1CCN(CCOc2ccn3c(C(=O)Nc4cccc5c4c(C)nn5Cc4cccc(C5CC5)n4)cnc3c2)CC1 [Example 20, N-(1-((6-cyclopropylpyridin-2-yl)methyl)-3-methyl-1H-indazol-4-yl)-7-(2-(4-(2-methoxyethyl)piperazin-1-yl)ethoxy)imidazo[1,2-a]pyridine-3-carboxamide] |
| 6.91 | 7.92 | 7.33 | CC(C)N1CCN(CCOc2ccn3c(C(=O)Nc4cccc5c4c(Cl)nn5Cc4cccc(C5CC5)n4)cnc3c2)CC1 [Example 21, N-(3-chloro-1-((6-cyclopropylpyridin-2-yl)methyl)-1H-indazol-4-yl)-7-(2-(4-isopropylpiperazin-1-yl)ethoxy)imidazo[1,2-a]pyridine-3-carboxamide] |
| 7.75 | 8.17 | 8.28 | CC(C)N1CCN(CCOc2ccn3c(C(=O)Nc4cccc5c4c(F)nn5Cc4cccc(C5CC5)n4)cnc3c2)CC1 [Example 22, N-(1-((6-cyclopropylpyridin-2-yl)methyl)-3-fluoro-1H-indazol-4-yl)-7-(2-(4-isopropylpiperazin-1-yl)ethoxy)imidazo[1,2-a]pyridine-3-carboxamide] |
| 6.62 | 7.68 | 7.18 | C[C@H]1CN(CCOc2ccn3c(C(=O)Nc4cccc5c4c(Cl)nn5Cc4cccc(C5CC5)n4)cnc3c2)CCN1C [Example 23, (S)—N-(3-chloro-1-((6-cyclopropylpyridin-2-yl)methyl)-1H-indazol-4-yl)-7-(2-(3,4-dimethylpiperazin-1-yl)ethoxy)imidazo[1,2-a]pyridine-3-carboxamide] |
| 7.85 | 8.17 | 8.19 | C[C@H]1CN(CCOc2ccn3c(C(=O)Nc4cccc5c4c(F)nn5Cc4cccc(C5CC5)n4)cnc3c2)CCN1C [Example 24, (S)—N-(1-((6-cyclopropylpyridin-2-yl)methyl)-3-fluoro-1H-indazol-4-yl)-7-(2-(3,4-dimethylpiperazin-1-yl)ethoxy)imidazo[1,2-a]pyridine-3-carboxamide] |
| 6.47 | 6.99 | 7.17 | Cc1nn(Cc2cccc(C(C)(C)C)n2)c2cccc(NC(=O)c3cnc4cc(OCCN5CCN(C)[C@@H](C)C5)ccn34)c12 [Example 31, (S)—N-(1-((6-tert-butylpyridin-2-yl)methyl)-3-methyl-1H-indazol-4-yl)-7-(2-(3,4-dimethylpiperazin-1-yl)ethoxy)imidazo[1,2-a]pyridine-3-carboxamide] |
| 7.18 | 7.62 | 7.37 | Cc1nn(Cc2cccc(C3CCC3)n2)c2cccc(NC(=O)c3cnc4cc(OCCN5CCN(C)[C@@H](C)C5)ccn34)c12 [Example 32, (S)—N-(1-((6-cyclobutylpyridin-2-yl)methyl)-3-methyl-1H-indazol-4-yl)-7-(2-(3,4-dimethylpiperazin-1-yl)ethoxy)imidazo[1,2-a]pyridine-3-carboxamide] |
| 7.18 | 7.38 | 7.65 | Cc1nn(Cc2cccc(C3CCCC3)n2)c2cccc(NC(=O)c3cnc4cc(OCCN5CCN(C)[C@@H](C)C5)ccn34)c12 [Example 33, (S)—N-(1-((6-cyclopentylpyridin-2-yl)methyl)-3-methyl-1H-indazol-4-yl)-7-(2-(3,4-dimethylpiperazin-1-yl)ethoxy)imidazo[1,2-a]pyridine-3-carboxamide] |
| 6.37 | 7.71 | 6.03 | Cc1cccc(Cn2nc(C)c3c(NC(=O)c4cnc5cc(OCCN6CCN(C)[C@@H](C)C6)ccn45)cccc32)n1 [Example 35, (S)-7-(2-(3,4-dimethylpiperazin-1-yl)ethoxy)-N-(3-methyl-1-((6-methylpyridin-2-yl)methyl)-1H-indazol-4-yl)imidazo[1,2-a]pyridine-3-carboxamide] |
| 7.18 | 7.92 | 6.92 | CCc1cccc(Cn2nc(C)c3c(NC(=O)c4cnc5cc(OCCN6CCN(C)[C@@H](C)C6)ccn45)cccc32)n1 [Example 36, (S)-7-(2-(3,4-dimethylpiperazin-1-yl)ethoxy)-N-(1-((6-ethylpyridin-2-yl)methyl)-3-methyl-1H-indazol-4-yl)imidazo[1,2-a]pyridine-3-carboxamide] |
| 6.99 | 7.28 | 7.21 | CCC(C)c1cccc(Cn2nc(C)c3c(NC(=O)c4cnc5cc(OCCN6CCN(C)[C@@H](C)C6)ccn45)cccc32)n1 (stereo partly drawn) [Example 37, N-(1-((6-sec-butylpyridin-2-yl)methyl)-3-methyl-1H-indazol-4-yl)-7-(2-((S)-3,4-dimethylpiperazin-1-yl)ethoxy)imidazo[1,2-a]pyridine-3-carboxamide] |
| 6.60 | 7.81 | 6.47 | CCCc1ccc(Cn2nc(C)c3c(NC(=O)c4cnc5cc(OCCN6CCN(C)[C@@H](C)C6)ccn45)cccc32)nc1 [Example 38, (S)-7-(2-(3,4-dimethylpiperazin-1-yl)ethoxy)-N-(3-methyl-1-((5-propylpyridin-2-yl)methyl)-1H-indazol-4-yl)imidazo[1,2-a]pyridine-3-carboxamide] |
| 7.17 | 7.45 | 6.73 | Cc1nn(Cc2ccc(C(C)C)cn2)c2cccc(NC(=O)c3cnc4cc(OCCN5CCN(C)[C@@H](C)C5)ccn34)c12 [Example 39, (S)-7-(2-(3,4-dimethylpiperazin-1-yl)ethoxy)-N-(1-((5-isopropylpyridin-2-yl)methyl)-3-methyl-1H-indazol-4-yl)imidazo[1,2-a]pyridine-3-carboxamide] |
| 7.43 | 7.25 | 7.02 | Cc1nn(Cc2cccc(CC(C)C)n2)c2cccc(NC(=O)c3cnc4cc(OCCN5CCN(C)[C@@H](C)C5)ccn34)c12 [Example 40, (S)-7-(2-(3,4-dimethylpiperazin-1-yl)ethoxy)-N-(1-((6-isobutylpyridin-2-yl)methyl)-3-methyl-1H-indazol-4-yl)imidazo[1,2-a]pyridine-3-carboxamide] |
| 7.71 | 7.01 | 7.06 | Cc1nn(Cc2ccc(F)c(C(C)C)n2)c2cccc(NC(=O)c3cnc4cc(OCCN5CCN(C)[C@@H](C)C5)ccn34)c12 [Example 41, (S)-7-(2-(3,4-dimethylpiperazin-1-yl)ethoxy)-N-(1-((5-fluoro-6-isopropylpyridin-2-yl)methyl)-3-methyl-1H-indazol-4-yl)imidazo[1,2-a]pyridine-3-carboxamide] |
| 7.07 | 7.63 | 7.23 | Cc1nn(Cc2cccc(C3CC3)n2)c2ccc(F)c(NC(=O)c3cnc4cc(OCCN5CCN(C)[C@@H](C)C5)ccn34)c12 [Example 43, (S)—N-(1-((6-cyclopropylpyridin-2-yl)methyl)-5-fluoro-3-methyl-1H-indazol-4-yl)-7-(2-(3,4-dimethylpiperazin-1-yl)ethoxy)imidazo[1,2-a]pyridine-3-carboxamide] |
| 7.67 | 7.65 | 7.37 | Cc1nn(Cc2cccc(C(C)C)n2)c2cccc(NC(=O)c3cnc4cc(OCCN5CCN[C@@H](C)C5)ccn34)c12 [Example 46, (S)—N-(1-((6-isopropylpyridin-2-yl)methyl)-3-methyl-1H-indazol-4-yl)-7-(2-(3-methylpiperazin-1-yl)ethoxy)imidazo[1,2-a]pyridine-3-carboxamide] |
| 6.40 | 8.00 | 6.16 | Cc1cccc(Cn2nc(C)c3c(NC(=O)c4cnc5cc(C6=CCNCC6)ccn45)cccc32)n1 [Example 51, N-(3-methyl-1-((6-methylpyridin-2-yl)methyl)-1H-indazol-4-yl)-7-(1,2,3,6-tetrahydropyridin-4-yl)imidazo[1,2-a]pyridine-3-carboxamide hydrochloride] |
| ≤ 6.00 | 6.97 | 5.30 | Cc1cccc(Cn2nc(C)c3c(NC(=O)c4cnc5cc(C6CCNCC6)ccn45)cccc32)n1 [Example 52, N-(3-methyl-1-((6-methylpyridin-2-yl)methyl)-1H-indazol-4-yl)-7-(piperidin-4-yl)imidazo[1,2-a]pyridine-3-carboxamide tri-hydrochloride] |
